In patent publication US8952034B2, “Fused heterocyclic compounds as ion channel modulators” (Gilead Sciences, Inc., priority 2009, dated 2015):

Molecular target: wild-type human cardiac sodium channel, hNav1.5 (Homo sapiens, UniProt Q14524)
Test: Late INa screening assay (automated whole cell patch clamp, PatchXpress)
Format: cell-based
Details: compound at 1 μM; HEK293 cells expressing hNav1.5; late INa generated with 10 μM Tefluthrin (or 50 nM ATX II); read-out: LateINa_1 uM (percent block of late INa)
Summary of the method: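 Late sodium current through wild-type human hNav1.5 stably expressed in HEK293 cells (no beta subunits) was recorded by automated whole-cell patch clamp on a PatchXpress 7000A at 24-27° C. Late INa was induced with 10 μM Tefluthrin or 50 nM ATX II. Cells were stepped from −120 mV to −20 mV for 250 ms at 0.1 Hz, and percent block was normalized to current in Na-free extracellular solution.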

wild-type human cardiac sodium channel, hNav1.5, sequence (Q14524 whole entry): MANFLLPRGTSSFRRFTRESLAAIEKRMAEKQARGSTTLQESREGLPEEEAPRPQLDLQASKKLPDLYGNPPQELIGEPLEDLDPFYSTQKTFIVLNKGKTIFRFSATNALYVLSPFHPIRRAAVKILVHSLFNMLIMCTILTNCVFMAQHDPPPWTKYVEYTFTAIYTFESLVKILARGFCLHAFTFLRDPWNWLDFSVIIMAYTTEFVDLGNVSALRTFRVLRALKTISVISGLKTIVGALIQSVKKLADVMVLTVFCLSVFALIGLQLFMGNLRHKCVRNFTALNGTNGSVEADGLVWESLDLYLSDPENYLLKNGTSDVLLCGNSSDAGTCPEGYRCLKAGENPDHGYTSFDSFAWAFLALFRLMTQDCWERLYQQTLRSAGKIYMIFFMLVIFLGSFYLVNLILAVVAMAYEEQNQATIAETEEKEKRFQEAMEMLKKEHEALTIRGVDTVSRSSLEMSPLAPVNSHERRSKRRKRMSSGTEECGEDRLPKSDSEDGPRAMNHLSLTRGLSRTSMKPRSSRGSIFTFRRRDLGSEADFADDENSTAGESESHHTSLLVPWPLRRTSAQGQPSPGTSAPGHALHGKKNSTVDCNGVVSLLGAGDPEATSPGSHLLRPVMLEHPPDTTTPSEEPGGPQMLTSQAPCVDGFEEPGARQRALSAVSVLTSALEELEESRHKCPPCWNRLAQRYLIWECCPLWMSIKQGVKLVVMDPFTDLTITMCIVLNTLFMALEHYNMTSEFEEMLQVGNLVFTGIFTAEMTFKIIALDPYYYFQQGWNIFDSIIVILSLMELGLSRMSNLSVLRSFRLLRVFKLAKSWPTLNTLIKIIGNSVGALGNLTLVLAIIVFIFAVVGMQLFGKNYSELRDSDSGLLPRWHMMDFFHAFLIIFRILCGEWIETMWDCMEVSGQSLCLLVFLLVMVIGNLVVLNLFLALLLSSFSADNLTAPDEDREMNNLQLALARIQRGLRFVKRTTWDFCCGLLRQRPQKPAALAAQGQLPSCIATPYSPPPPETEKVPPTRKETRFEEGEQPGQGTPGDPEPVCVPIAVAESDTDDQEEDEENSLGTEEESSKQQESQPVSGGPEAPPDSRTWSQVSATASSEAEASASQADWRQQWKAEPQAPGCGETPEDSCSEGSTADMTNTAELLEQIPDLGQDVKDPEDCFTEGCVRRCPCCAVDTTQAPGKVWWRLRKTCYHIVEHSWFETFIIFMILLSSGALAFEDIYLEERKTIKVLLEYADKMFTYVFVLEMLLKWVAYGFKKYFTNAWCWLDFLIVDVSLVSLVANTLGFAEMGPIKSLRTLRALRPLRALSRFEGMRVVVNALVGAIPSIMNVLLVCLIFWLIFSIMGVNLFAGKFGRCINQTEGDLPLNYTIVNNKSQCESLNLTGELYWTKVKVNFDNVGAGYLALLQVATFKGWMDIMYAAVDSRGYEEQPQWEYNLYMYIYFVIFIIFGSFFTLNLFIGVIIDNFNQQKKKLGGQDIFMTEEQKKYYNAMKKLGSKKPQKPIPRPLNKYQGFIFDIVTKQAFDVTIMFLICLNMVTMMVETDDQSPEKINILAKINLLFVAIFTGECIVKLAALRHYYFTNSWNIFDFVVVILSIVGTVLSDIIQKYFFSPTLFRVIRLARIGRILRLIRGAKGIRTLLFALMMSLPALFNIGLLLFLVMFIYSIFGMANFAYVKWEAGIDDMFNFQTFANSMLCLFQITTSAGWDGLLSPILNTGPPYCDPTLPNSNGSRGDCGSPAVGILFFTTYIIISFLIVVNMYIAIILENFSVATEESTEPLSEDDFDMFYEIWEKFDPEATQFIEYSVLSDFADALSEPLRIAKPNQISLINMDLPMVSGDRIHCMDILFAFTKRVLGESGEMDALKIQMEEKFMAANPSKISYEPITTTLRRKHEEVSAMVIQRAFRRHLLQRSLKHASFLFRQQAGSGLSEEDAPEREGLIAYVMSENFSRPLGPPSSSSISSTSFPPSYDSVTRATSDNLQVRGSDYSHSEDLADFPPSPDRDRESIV

SMILES | inhibition at 1 µM [%]
Cc1ccc(COCc2nnc3ccc(-c4ccc(OC(F)(F)F)cc4)cn23)nc1 [BHN-252, 3-{[(5-methylpyridin-2-yl)methoxy]methyl}-6-[4-(trifluoromethoxy)phenyl][1,2,4]triazolo[4,3-a]pyridine] | 20.6
COCC(F)(F)c1nnc2ccc(C#Cc3ccccc3)cn12 [BHN-192, 3-(1,1-difluoro-2-methoxyethyl)-6-(phenylethynyl)[1,2,4]triazolo[4,3-a]pyridine] | 31
CC(=O)c1ccc(-c2ccc3nnc(C(F)(F)F)n3c2)cc1 [BHN-154, 1-(4-(3-(trifluoromethyl)-[1,2,4]triazolo[4,3-a]pyridin-6-yl)phenyl)ethanone] | 19.2
FC(F)(F)Oc1ccc(-c2ccc3nnc(C(F)(F)OCc4nc(-c5ccccc5)oc4C(F)(F)F)n3c2)cc1 [BHN-313, 3-(difluoro{[2-phenyl-5-(trifluoromethyl)-1,3-oxazol-4-yl]methoxy}methyl)-6-[4-(trifluoromethoxy)phenyl][1,2,4]triazolo[4,3-a]pyridine] | 50
Cc1noc(-c2cc(-c3ccc4nnc(C(F)(F)F)n4c3)ccc2OC(F)(F)F)n1 [BHN-182, 6-[3-(3-methyl-1,2,4-oxadiazol-5-yl)-4-(trifluoromethoxy)phenyl]-3-(trifluoromethyl)[1,2,4]triazolo[4,3-a]pyridine] | 18.9
Fc1ccc(COCC(F)(F)c2nnc3ccc(-c4ccc(OC(F)(F)F)cc4)cn23)cc1F [BHN-190, 3-{2-[(3,4-difluorobenzyl)oxy]-1,1-difluoroethyl}-6-[4-(trifluoromethoxy)phenyl][1,2,4]triazolo[4,3-a]pyridine] | 24.3
FC(F)(F)c1ccc(-c2ccc3nnc(C(F)(F)F)n3c2)nn1 [BHN-121, 3-(trifluoromethyl)-6-[6-(trifluoromethyl)pyridazin-3-yl][1,2,4]triazolo[4,3-a]pyridine] | 21.9
COc1cc(-c2ccc3nnc(C(F)(F)F)n3c2)cc(OC)c1OC [BHN-107, 3-(trifluoromethyl)-6-(3,4,5-trimethoxyphenyl)[1,2,4]triazolo[4,3-a]pyridine] | 16.5
Fc1ccccc1COCc1nnc2ccc(-c3ccc(OC(F)(F)F)cc3)cn12 [BHN-238, 3-{[(2-fluorobenzyl)oxy]methyl}-6-[4-(trifluoromethoxy)phenyl][1,2,4]triazolo[4,3-a]pyridine] | 80.6
Cc1ccccc1Oc1nnc2ccc(-c3ccc(OC(F)(F)F)cc3)cn12 [BHN-273, 3-(2-methylphenoxy)-6-[4-(trifluoromethoxy)phenyl][1,2,4]triazolo[4,3-a]pyridine] | 68.7
FC(F)(F)Oc1ccc(-c2ccc3nnc(C(F)(F)COCc4cccnc4)n3c2)cc1 [BHN-139, 3-[1,1-difluoro-2-(pyridin-3-ylmethoxy)ethyl]-6-[4-(trifluoromethoxy)phenyl][1,2,4]triazolo[4,3-a]pyridine] | 15.4
FC(F)(F)Oc1ccc(-c2ccc3nnc(C(F)(F)OCc4ncccn4)n3c2)cc1 [BHN-245, 3-[difluoro(pyrimidin-2-ylmethoxy)methyl]-6-[4-(trifluoromethoxy)phenyl][1,2,4]triazolo[4,3-a]pyridine] | 38.8
Cc1cccc(C)c1OCCOC(F)(F)c1nnc2ccc(-c3ccc(OC(F)(F)F)cc3)cn12 [BHN-285, 3-{[2-(2,6-dimethylphenoxy)ethoxy](difluoro)methyl}-6-[4-(trifluoromethoxy)phenyl][1,2,4]triazolo[4,3-a]pyridine] | 68
CC(OCc1ccccn1)c1nnc2ccc(-c3ccc(OC(F)(F)F)cc3)cn12 (centres unmarked) [BHN-255, 3-[1-(pyridin-2-ylmethoxy)ethyl]-6-[4-(trifluoromethoxy)phenyl][1,2,4]triazolo[4,3-a]pyridine] | 22.8
FC(F)(F)Oc1ccc(-c2ccc3nnc(C#CC4CC4)n3c2)cc1 [BHN-171, 3-(cyclopropylethynyl)-6-[4-(trifluoromethoxy)phenyl][1,2,4]triazolo[4,3-a]pyridine] | 49.3
Cn1nc(C2CC2)cc1COC(F)(F)c1nnc2ccc(-c3ccc(OC(F)(F)F)cc3)cn12 [BHN-266, 3-{[(3-cyclopropyl-1-methyl-1H-pyrazol-5-yl)methoxy](difluoro)methyl}-6-[4-(trifluoromethoxy)phenyl][1,2,4]triazolo[4,3-a]pyridine] | 50.2

SMILES | inhibition at 1 µM [%]
COc1cc(-c2ccc(OC(F)(F)F)cc2)cn2c(C(F)F)nnc12 [BHN-126, 3-(difluoromethyl)-8-methoxy-6-[4-(trifluoromethoxy)phenyl][1,2,4]triazolo[4,3-a]pyridine] | 26.9
FC(F)(F)c1nnc2ccc(-c3ccc(C4CC4)cc3)cn12 [BHN-90, 6-(4-cyclopropylphenyl)-3-(trifluoromethyl)[1,2,4]triazolo[4,3-a]pyridine] | 63.4
CCOC(=O)COCC(F)(F)c1nnc2ccc(-c3ccc(OC(F)(F)F)cc3)cn12 [BHN-167, ethyl (2,2-difluoro-2-{6-[4-(trifluoromethoxy)phenyl][1,2,4]triazolo[4,3-a]pyridin-3-yl}ethoxy)acetate] | 45.8
Clc1ccc(Oc2ccc(-c3ccc4nnnn4c3)cc2)cc1 [BHN-218, 6-[4-(4-chlorophenoxy)phenyl]tetrazolo[1,5-a]pyridine] | 36
Fc1ccc(COCc2nnc3ccc(-c4ccc(OC(F)(F)F)cc4)cn23)cc1 [BHN-227, 3-{[(4-fluorobenzyl)oxy]methyl}-6-[4-(trifluoromethoxy)phenyl][1,2,4]triazolo[4,3-a]pyridine] | 79.8
N#CC1(c2ccc(-c3ccc4nnc(C(F)(F)F)n4c3)cc2)CC1 [BHN-195, 1-{4-[3-(trifluoromethyl)[1,2,4]triazolo[4,3-a]pyridin-6-yl]phenyl}cyclopropanecarbonitrile] | 47.3
Fc1cc(OC(F)(F)F)ccc1-c1ccc2nnc(C(F)(F)F)n2c1 [BHN-145, 6-[2-fluoro-4-(trifluoromethoxy)phenyl]-3-(trifluoromethyl)[1,2,4]triazolo[4,3-a]pyridine] | 55.3
FC(F)(F)c1nnc2ccc(-c3cccc4ccccc34)cn12 [BHN-120, 6-(naphthalen-1-yl)-3-(trifluoromethyl)[1,2,4]triazolo[4,3-a]pyridine] | 20.4
Cc1cc(OC(F)(F)F)ccc1-c1ccc2nnc(C(C)C)n2n1 [BHN-33, 6-[2-methyl-4-(trifluoromethoxy)phenyl]-3-(propan-2-yl)[1,2,4]triazolo[4,3-b]pyridazine] | 59.2
FC(F)(F)Oc1ccc(-c2ccc3nnc(C(F)(F)F)n3c2)c(Br)c1 [BHN-124, 6-[2-bromo-4-(trifluoromethoxy)phenyl]-3-(trifluoromethyl)[1,2,4]triazolo[4,3-a]pyridine] | 82
FC(F)(F)Oc1ccc(-c2ccc3nnc(C(F)(F)OCc4ccncc4)n3c2)cc1 [BHN-149, 3-[difluoro(pyridin-4-ylmethoxy)methyl]-6-[4-(trifluoromethoxy)phenyl][1,2,4]triazolo[4,3-a]pyridine] | 34
COc1ccc(-c2ccc3cnc(C(F)(F)F)n3c2)cc1 [BHN-30, 6-(4-methoxyphenyl)-3-(trifluoromethyl)imidazo[1,5-a]pyridine] | 24.6
Clc1ccc(Oc2ccc(-c3ccc4nnnn4n3)cc2)cc1 [BHN-270, 6-[4-(4-chlorophenoxy)phenyl]tetrazolo[1,5-b]pyridazine] | 21.7
CC(C)(O)COCC(F)(F)c1nnc2ccc(-c3ccc(OC(F)(F)F)cc3)cn12 [BHN-205, 1-(2,2-difluoro-2-{6-[4-(trifluoromethoxy)phenyl][1,2,4]triazolo[4,3-a]pyridin-3-yl}ethoxy)-2-methylpropan-2-ol] | 25.2
Fc1ccc(Oc2ccc(-c3ccc4nnc(C(F)(F)F)n4c3)cc2)cc1 [BHN-64, 6-[4-(4-fluorophenoxy)phenyl]-3-(trifluoromethyl)[1,2,4]triazolo[4,3-a]pyridine] | 38.2

Same assay, conditions: compound at 10 μM; HEK293 cells expressing hNav1.5; late INa generated with 10 μM Tefluthrin (or 50 nM ATX II); read-out: LateINa_10 uM (percent block of late INa)

SMILES | inhibition at 10 µM [%]
FC(F)(F)c1nnc2ccc(-c3ccc(Oc4ccccc4)cc3)cn12 [BHN-332, 6-(4-phenoxyphenyl)-3-(trifluoromethyl)[1,2,4]triazolo[4,3-a]pyridine] | 83.5
N#Cc1ccc(-c2nnc3ccc(-c4ccc(Oc5ccccc5)cc4)nn23)cc1 [BHN-40, 4-[6-(4-phenoxyphenyl)[1,2,4]triazolo[4,3-b]pyridazin-3-yl]benzonitrile] | 38.2
N#Cc1ccc(-c2nnc3ccc(-c4ccc(OC(F)(F)F)cc4)nn23)cc1 [BHN-42, 4-{6-[4-(trifluoromethoxy)phenyl][1,2,4]triazolo[4,3-b]pyridazin-3-yl}benzonitrile] | 43.8
Cc1cc(OC(F)(F)F)ccc1-c1ccc2nnc(-c3ccc(C#N)cc3)n2n1 [BHN-41, 4-{6-[2-methyl-4-(trifluoromethoxy)phenyl][1,2,4]triazolo[4,3-b]pyridazin-3-yl}benzonitrile] | 59.1
FC(F)(F)c1nnc2ccc(-c3ccc(C4CC4)cc3)cn12 [BHN-90, 6-(4-cyclopropylphenyl)-3-(trifluoromethyl)[1,2,4]triazolo[4,3-a]pyridine] | 74.9
CC(C)(O)c1nnc2ccc(-c3ccc(Oc4ccccc4)cc3)nn12 [BHN-60, 2-[6-(4-phenoxyphenyl)[1,2,4]triazolo[4,3-b]pyridazin-3-yl]propan-2-ol] | 48.6
FC(F)c1nnc2cnc(-c3ccc(Oc4ccccc4)cc3)cn12 [BHN-18, 3-(difluoromethyl)-6-(4-phenoxyphenyl)[1,2,4]triazolo[4,3-a]pyrazine] | 54.6
Cc1cc(OC(F)(F)F)ccc1-c1ccc2nnc(C(C)C)n2n1 [BHN-33, 6-[2-methyl-4-(trifluoromethoxy)phenyl]-3-(propan-2-yl)[1,2,4]triazolo[4,3-b]pyridazine] | 75.9
COc1ccc(-c2ccc3cnc(C(F)(F)F)n3c2)cc1 [BHN-30, 6-(4-methoxyphenyl)-3-(trifluoromethyl)imidazo[1,5-a]pyridine] | 77.3
Fc1ccc(Oc2ccc(-c3ccc4nnc(C(F)(F)F)n4c3)cc2)cc1 [BHN-64, 6-[4-(4-fluorophenoxy)phenyl]-3-(trifluoromethyl)[1,2,4]triazolo[4,3-a]pyridine] | 69.6
